Measured values from the supplement of paper PMC10307832.

Experiments:
Assay in all cases: relative viability (nuclei count vs DMSO), 5 days (fraction); higher = more cells survive
AZ23 = compound: CC(C)Oc1cc(Nc2nc(N[C@@H](C)c3ccc(F)cn3)ncc2Cl)n[nH]1 [AZ23]
How it was run: (§1)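 Viability here means nuclei in treated wells divided by nuclei in vehicle wells, reported as the median across plates. Only plates with control CV below 25% and at least one doubling passed. Lung cancer cell lines in 1536-well plates were exposed to five √10-spaced library-drug doses for 5 days and counted from 4× Hoechst images in MetaXpress.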

Embelin = compound: CCCCCCCCCCCC1=C(O)C(=O)C=C(O)C1=O [Embelin]
How it was run: as §1

[1] = compound: C[C@@H]1CN(CC(=O)Nc2ccc3c(c2)Cc2cccc(-c4cc(=O)cc(N5CCOCC5)o4)c2S3)C[C@H](C)O1
How it was run: as §1

Vatalanib = compound: Clc1ccc(Nc2nnc(Cc3ccncc3)c3ccccc23)cc1 [Vatalanib]
How it was run: as §1

HG-5-88-01 = compound: CC(C)S(=O)(=O)C1=CC=CC=C1NC2=NC(=NC(=C2Cl)N)NC3=C(C=C(C=C3)N4CCC(CC4)C(=O)N)OC [HG-5-88-01]
How it was run: as §1

| Cell Line | relative viability (AZ23; 0.01 µM) | relative viability (AZ23; 0.03162 µM) | relative viability (AZ23; 0.3162 µM) | relative viability (Embelin; 0.08 µM) | relative viability (Embelin; 0.8 µM) | relative viability (Embelin; 2.53 µM) | relative viability (Embelin; 8 µM) | relative viability ([1]; 0.04 µM) | relative viability ([1]; 0.1265 µM) | relative viability ([1]; 0.4 µM) | relative viability ([1]; 4 µM) | relative viability (Vatalanib; 0.04 µM) | relative viability (Vatalanib; 0.1265 µM) | relative viability (Vatalanib; 0.4 µM) | relative viability (Vatalanib; 1.265 µM) | relative viability (Vatalanib; 4 µM) | relative viability (HG-5-88-01; 0.04 µM) | relative viability (HG-5-88-01; 0.1265 µM) | relative viability (HG-5-88-01; 0.4 µM) | relative viability (HG-5-88-01; 1.265 µM) | relative viability (HG-5-88-01; 4 µM) |
| --- | --- | --- | --- | --- | --- | --- | --- | --- | --- | --- | --- | --- | --- | --- | --- | --- | --- | --- | --- | --- | --- |
| NCI-H358 | 1.03 | 1.03 | 1.04 | 1.02 | 0.982 | 1.09 | 1.15 | 0.989 | 0.905 | 0.958 | 0.673 | 1.02 | 0.911 | 0.986 | 0.962 | 0.955 | 0.88 | 0.879 | 0.794 | 0.34 | 0.311 |
| NCI-H441 | 1.43 | 1.01 | 1.06 | 1.05 | 1.19 | 1.45 | 1.02 | 1.2 | 0.787 | 1.04 | 0.948 | 1.16 | 0.922 | 1.08 | 1.08 | 0.933 | 1.09 | 1.33 | 1.24 | 0.925 | 0.819 |
| NCI-H460 | 1.03 | 1.08 | 1.07 | 1.01 | 1.03 | 1.04 | 0.997 | 0.934 | 0.963 | 1.06 | 0.938 | 1.03 | 0.924 | 1.01 | 0.947 | 0.984 | 1 | 0.953 | 0.954 | 0.99 | 1.03 |
| NCI-H520 | 0.915 | 1.11 | 0.92 | 1.07 | 1.1 | 1.11 | 0.931 | 0.797 | 1.05 | 0.901 | 0.94 | 1.07 | 0.92 | 1.08 | 0.881 | 0.841 | 0.994 | 1.05 | 0.959 | 1 | 1.02 |
| NCI-H522 | 1.04 | 1.12 | 1.09 | 1.01 | 1.13 | 1.15 | 0.821 | 0.77 | 1 | 1.11 | 0.864 | 1.1 | 0.767 | 0.966 | 0.917 | 0.876 | 1.04 | 0.903 | 0.849 | 0.804 | 0.706 |
| NCI-H596 | 1.07 | 0.915 | 0.962 | 0.981 | 0.986 | 1.16 | 0.732 | 0.947 | 0.982 | 0.783 | 0.885 | 0.97 | 1.15 | 1.06 | 0.954 | 0.912 | 1.01 | 0.933 | 1.04 | 0.994 | 0.576 |
| NCI-H647 | 0.949 | 1.04 | 1.22 | 0.985 | 1.25 | 1.08 | 0.914 | 0.882 | 0.976 | 1 | 0.734 | 1 | 0.943 | 0.933 | 0.916 | 0.85 | 1 | 0.97 | 0.832 | 0.971 | 1.1 |
| NCI-H650 | 0.867 | 1.09 | 0.921 | 0.821 | 1.09 | 0.909 | 0.739 | 0.944 | 0.95 | 1.07 | 0.722 | 1.01 | 0.885 |  | 0.779 | 0.847 | 1.04 | 0.993 | 0.829 | 0.902 | 0.576 |
| NCI-H661 | 1.05 | 1.04 | 0.967 | 1.01 | 1.06 | 1.02 | 1.04 | 0.864 | 0.97 | 0.951 | 0.916 | 0.975 | 0.971 | 0.983 | 0.906 | 0.988 | 0.992 | 1.01 | 1.1 | 1.01 | 1.01 |
| NCI-H727 | 0.832 | 0.94 | 0.973 | 1.03 | 0.935 | 0.958 | 0.976 | 0.93 | 0.885 | 0.991 | 0.882 | 0.943 | 0.858 | 0.899 | 0.832 | 0.887 | 1.08 | 0.883 | 0.958 | 0.606 | 0.63 |
| NCI-H838 | 0.987 | 0.993 | 1 | 0.982 | 1.05 | 1.06 | 0.896 | 0.887 | 0.93 | 0.883 | 0.813 | 1.02 | 0.928 | 1.09 | 0.945 | 0.942 | 0.978 | 1.03 | 0.79 | 0.676 | 0.655 |
| NCI-H1299 | 1.06 | 1.01 | 1.1 | 1.04 | 1.05 | 0.994 | 1.02 | 1.05 | 0.989 | 1 | 0.898 | 1.05 | 1.01 | 1.02 | 1 | 1.01 | 0.987 | 1.02 | 0.992 | 0.99 | 1.02 |
| NCI-H1355 | 1.14 | 1.03 | 1.03 | 0.996 | 1.16 | 1.03 | 0.775 | 0.984 | 0.964 | 0.959 | 0.852 | 1.03 | 0.99 | 1.07 | 0.938 | 0.969 | 1.01 | 1.06 | 0.932 | 0.943 | 0.698 |
| NCI-H1395 |  | 1.01 | 0.849 | 0.941 | 1.15 | 0.857 | 0.617 | 0.854 | 0.816 | 0.761 | 0.999 | 0.939 | 0.871 | 0.863 | 0.813 | 0.885 | 0.9 | 0.97 | 0.921 | 0.953 | 0.876 |
| NCI-H1437 | 1.02 | 1.09 | 1 | 0.961 | 1.11 | 1.04 | 0.709 | 0.977 | 0.995 | 1.06 | 0.885 | 0.984 | 0.987 | 1.01 | 0.938 | 0.969 | 1.04 | 1.04 | 0.995 | 0.917 | 1.01 |
| NCI-H1563 | 1.06 | 1.02 | 0.967 | 0.946 | 1.17 | 0.978 | 0.978 | 0.947 | 0.901 | 0.941 | 0.935 | 1.04 | 0.889 | 1.03 | 0.918 | 0.937 | 1.02 | 0.932 | 0.974 | 0.811 | 1.19 |
